One data set concerns HRV. The following applies: read-out: IC50 (anti-HRV); cited from earlier work.
Data set [1] in a line: Cytotoxicity MTT assay in HeLa cells. The class given is cell-based. Particulars: human, tetrazolium assay, read-out: CC50 (95% CL). The method, then: (§1) The cytotoxicity of the test materials to two human cell lines was evaluated using an MTT assay described previously by Morgan. In brief, a 10× stock solution of MTT was prepared by adding 5 mg/mL MTT in phosphate-buffered saline (PBS) (pH 7.4). The stock solution was sterile-filtered and stored at −20°C. HeLa and MRC5 cells were seeded onto 96-well culture plates at a density of 3 × 10^4 cells per well for 1 day. The culture medium was removed and the plates with monolayer cells were replaced with media containing several different concentrations (1–1000 μg/mL) of the test materials in dimethylsulfoxide (DMSO). After incubation at 37°C and 5% CO2 for 2 days, the culture plates were then washed once with 200 μL PBS. A volume of 100 μL medium containing 0.05% MTT were added to each well and then incubated for 4 h at the same condition. After then, MTT solution was removed and 150 μL DMSO was added to each well. Finally, the plate was shaken for 15 min to dissolve the purple formazan crystals that had formed. Absorbance was read at 560 nm by using a VersaMax microplate reader (Molecular Devices, Sunnyvale, CA) with a reference absorbance at 670 nm.
(§2) The CC50 and IC50 values were determined using GraphPad Prism 5 software program (GraphPad Software, La Jolla, CA). […] The selectivity index (SI) was determined as the ratio of CC50 to IC50 [23]. All data represent the mean ± SD of duplicate or triplicate samples of three independent experiments. […] Data from two groups were analyzed by a Student’s t-test, and multiple groups were analyzed by a one-way analysis of variance and Bonferroni multiple comparison post-test.
For orientation: Tetrazolium assays rely on reduction of a dye to a coloured formazan, in cell work by metabolically active cells.

Data set [2] in a line: Cytotoxicity MTT assay in MRC5 cells. Format: cell-based, human. The following applies: human, tetrazolium assay, read-out: CC50 (95% CL). The method, then:
as §1, §2

The next data set relates to MRC5 cells. Briefly: Cytotoxicity MTT assay in MRC5 cells. Format: cell-based, human. The method, then: as §1, §2
Data set [3] has as its system HRV-2. The data set can be described thus: Cytopathic effect inhibition assay (MTT), HRV-2 in HeLa cells. The class given is cell-based, human rhinovirus. Particulars: read-out: IC50 (95% CL) HRV-2. How it is done: (§3) Monolayers of HeLa and MRC5 cells were seeded onto a 96-well culture plate as stated previously. Subsequently, 90 μL media containing several different concentrations (1–1000 μg/mL) of each test material in DMSO was put into the wells, and then 10 μL of 10×TCID50 of the virus stock was added to produce an appropriate CPE within 2 days after infection. Ribavirin served as a reference control and was similarly prepared. Negative controls consisted of the DMSO solution. Viral inhibition rate (VIR) (%) was calculated according to the formula [21], VIR = (A tV—A cV)/(A cd—A cV) × 100, where A tV is the optical density measured with a given concentration of the test compound in HRV infected cells; A cV is the optical density measured for the control untreated HRV infected cells; A cd is the optical density measured for the control untreated HRV uninfected cells.
(§4) The CC50 and IC50 values were determined using GraphPad Prism 5 software program (GraphPad Software, La Jolla, CA). […] The selectivity index (SI) was determined as the ratio of CC50 to IC50 [23]. All data represent the mean ± SD of duplicate or triplicate samples of three independent experiments. Statistical analyses were carried out using SAS 9.13 program (SAS Institute, Cary, NC). Data from two groups were analyzed by a Student’s t-test, and multiple groups were analyzed by a one-way analysis of variance and Bonferroni multiple comparison post-test.
A general note: Cytopathic effects are the visible damage that an infection or toxin causes in cultured cells.

The subject of data set [4] is HRV-4. Briefly: Cytopathic effect inhibition assay (MTT), HRV-4 in HeLa cells. Particulars: Human rhinovirus sp., HRV4, HeLa, read-out: IC50 (95% CL) HRV-4. The class given is cell-based, human rhinovirus. How it is done:
Extraction procedures of air-dried root of P. lactiflora were performed as described previously by Ngan et al.. For isolation of active principles, viral CPE inhibition assay toward HRV-4 in HeLa cell was used. […]. Column fractions were monitored by TLC on silica gel plates developed with chloroform and methanol (7:3 by volume) mobile phase. Fractions with similar R f values on the TLC plates were pooled. Active fractions 4 to 5 (EI, 2.44 g) and 7 (EII, 0.569 g) were obtained. The active fraction EI was rechromatographed on a silica gel column by elution with chloroform and methanol (70:30 by volume) to give nine fractions (each about 450 mL). A preparative HPLC was used for separation of constituents from the active fractions 3 to 5 (0.176 g). The column was a 4.6 mm i.d. × 150 mm Eclipse XDB-C18 (Agilent, Santa Clara, CA) using a mobile phase of methanol and water (3:7 by volume) at a flow rate of 0.5 mL/min. Chromatographic separations were monitored using a UV detector at 260 nm. […]. The three antiviral principles were characterized as paeonol (PA) (1), gallic acid (GA) (2), and 1,2,3,4,6-penta-O-galloyl-β-D-glucopyranose (PGG) (3) (Fig 1) by spectroscopic analyses, including MS and NMR. PA (1): compound 1 was isolated as an antibacterial principle from P. lactiflora root in our previous work, and the spectral data of compound 1 was largely identical to the published data. GA (2) was identified on the basis of the following evidence: white powder. UV (MeOH): λmax nm = 260. FT-IR: v max cm^–1 = 3491–3063 (OH stretch), 1608 (aromatic C = C). […] The interpretations of proton and carbon signals of compound 2 were largely consistent with those of Sakar et al.. PGG (3): compound 3 was isolated as an antibacterial principle from P. lactiflora root in our previous work, and the spectral data of compound 3 was largely identical to the published data.
as §3, §4

The test system of data set [5] is HRV-2. The data set can be described thus: Cytopathic effect inhibition assay (MTT), HRV-2 in MRC5 cells. Particulars: HRV-2 in MRC5 cells. Format: cell-based, human rhinovirus. The method, then: as §3, §4
For data set [6], the system named is HRV-4. Briefly: Cytopathic effect inhibition assay (MTT), HRV-4 in MRC5 cells. Particulars: HRV-4 in MRC5 cells. The class given is cell-based, human rhinovirus. The method, then: as §3, §4
The subject of data set [7] is two HRVs (HRV-2 and HRV-4). The data set can be described thus: Cytopathic effect inhibition assay, summary over both serotypes. Format: cell-based, human rhinovirus. Particulars: Rhinovirus A; range over HRV-2 and HRV-4, HeLa and MRC5 cells; read-out: IC50 toward two HRVs (range). How it is done: as §3, §4

pIC50: −log10 of the molar value. Read-outs that look alike come from different tables or passages of the source.

Take `C[C@@H]1CC[C@]2(C(=O)O)CC[C@]3(C)C(=CC[C@@H]4[C@@]5(C)C[C@@H](O)[C@H](OC(=O)/C=C/c6ccc(O)c(O)c6)C(C)(C)[C@@H]5CC[C@]43C)[C@@H]2[C@]1(C)O` (relative stereo) [3-O-trans-caffeoyltormentic acid]: the pIC50 (in general, the negative decadic logarithm of the IC50, by convention in mol/L) in the data set on HRV was 4.51.
With `COc1cc(O)c2c(=O)c(OC)c(-c3ccc(O)c(OC)c3)oc2c1` [4ʹ,5-dihydroxy-3ʹ,3,7-trimethoxyflavone], the pIC50 with HRV is 6.54.
Consider `COc1cc2ccc(=O)oc2c(OC)c1OC` [6,7,8-trimethoxycoumarin], for which the pIC50 in the data set on HRV was 4.92.
Take `O=C(O)c1cc(O)c(O)c(O)c1` [GA, gallic acid]: the 50% cytotoxic concentration (CC50) (as a rule, the concentration giving 50% cytotoxicity) at 2 days in data set [1] is 1500 µM; in [2] it was 218 µM. Besides, the “concentration toxic to cells” value with MRC5 cells is no less than 290 µM. For the same compound, the pIC50 with HRV-2 [3] (Rhinovirus A, HRV2, HeLa) is 3.37; in the data set with HRV-2 [3] it was 3.37; in the data set with HRV-4 [4], 3.35; in [7], 3.35 to 3.37; in the data set with HRV it was roughly 3.53. In the data set on HRV-2 [5], the “IC50 (95% CL) HRV-2” value was “ineffective”. For the same compound, the “IC50 (95% CL) HRV-4” value in the data set on HRV-4 [6] was “ineffective”.
`COc1cc2c(c(O)c1OC)c(=O)c1ccccc1n2C` [arborinine]: the negative logarithm of the IC50 (pIC50) in the data set on HRV was 5.50.
Take `COc1cc2cc(Oc3ccc4ccc(=O)oc4c3)c(=O)oc2cc1OC` [daphnoretin methyl ether]: the pIC50 with HRV is 4.01.
As to `C=C1CC[C@@H](O)C(C)(C)C1CC/C(C)=C/COc1ccc2ccc(=O)oc2c1` (stereo partly drawn) [farnesiferol B], the pIC50 in the data set with HRV was roughly 5.58.
Consider `C/C(=C\COc1ccc2ccc(=O)oc2c1)CC[C@@H]1C(C)(C)[C@H]2CC[C@]1(C)O2` [farnesiferol C], for which the pIC50 in the data set on HRV is roughly 5.58.
As for `COc1cc2c(cc1OC)-c1c(OC)c(OC)cc3c1[C@H](C2)N(C)CC3` [glaucine], the negative-log IC50 (pIC50) in the data set with HRV is 4.66.
For the compound `O=c1c(-c2ccc(O)c(O)c2)coc2cc(O[C@@H]3O[C@H](CO)[C@@H](O)[C@H](O)[C@H]3O)cc(O)c12` [orobol 7-O-D-glucoside], the negative logarithm of the IC50 (pIC50) in the data set on HRV is 4.71 to 5.89.
On to `C=C1CCC2CC(C(=C)C)C2(C)CCC(C(=C)C(=O)O)CC1CC=C(C)C` (stereo not drawn) [raoulic acid], for which the pIC50 in the data set with HRV was 6.29.
With (S)-ribalinine, the pIC50 with HRV was 4.08.

Source of the values: PMC4393083, “Antiviral Activity and Possible Mechanism of Action of Constituents Identified in Paeonia lactiflora Root toward Human Rhinoviruses” (PLoS ONE, 2015).
